Results: patent US8859496B2, “Pharmaceutical composition using connective-tissue growth factor” (Postech Academy-Industry Foundation, priority 2010, dated 2014)

Tests used:
HUVECs [1] = assay: HUVEC wound migration assay; format: cell-based, human; details: compared to Luciferase siRNA control
Protocol: Specifically, HUVECs inoculated on a 60-mm culture dish to confluence were wounded with the end of a pipette, and treated with linker polypeptide (10^−1˜10^2 nM) or recombinant CTGF (recombinant human CTGF, rhCTGF; BioVendor R&D, NC, USA) (10^1 or 10^2 nM) in Medium 199 to which 1% serum and 1 mM thymidine were added. After culturing 16 hours, the number of cells that migrated over a reference line was counted to quantify the degree of migration, and the cells were photographed with 50× magnification.
(§1) First, 20 ng/ml of VEGF-A was administered to HUVECs, the degree of cell proliferation, cell migration, or tube formation was confirmed by the <Experiment method 9>, and the results are shown in FIGS. 22 to 24. At this time, FPRL1 antagonist WRW4 was additionally added.

HUVECs [2] = assay: HUVEC tube formation on Matrigel; format: cell-based, human; details: compared to Luciferase siRNA control
Protocol: Meanwhile, to analyze tube formation, HUVECs were inoculated on the previously polymerized Matrigel (BD Biosciences) layer together with a certain amount of linker polypeptide, rhCTGF or VEGF-A165. After culturing for 18 hours, the shape of the cells was observed by phase-contrast microscopy, and photographed with 40× magnification. By measuring the length of tubes 5 times in LPF (low-power fields) randomly selected from each well using image-Pro Plus v4.5 (Media Cybernetics, Silver Spring, Md.), the degree of tube formation was quantified.
as §1

human FPRL1 = assay: siRNA inhibition of FPRL1 expression in HUVECs (RT-PCR); format: cell-based; details: siRNA 20 nM
Protocol: To inhibit transcription of human FPRL1 using siRNA, siRA to FPRL1 (sense: UUCACAUCGUGGUGGACAUdTdT (SEQ ID NO. 3), anti-sense: AUGUCCACCACGAUGUGAAdTdT (SEQ ID NO. 4)) was used. As result of BLAST search of the siRNA sequence, it was confirmed that there is no significant similarity to other sequences in the database. […] HUVECs were used for siRNA transfection. The cells were transfected to the final concentration of 20 nM with FPRL1 siRNA (SEQ ID NO. 3 and SEQ ID NO. 4) or transfected with luciferase siRNA (SEQ ID NO. 11 and SEQ ID NO. 12) as control. At this time, a lipofectamine reagent (Invitrogen Life Technologies) was used according to the manufacturer's instruction. The cells were washed with serum-free medium, and cultured with the transfection mixture to which medium containing 20% (v/v) FBS was added for 4.5 hours. 24 hours and 48 hours after culturing, the cells were collected, and the degree of FPRL1 expression was confirmed by RT-PCR analysis.
All RNAs were separated from the transfected HUVECs according to the manufacturer's instruction using commercially available TRI reagent (Molecular Research Center). First-strand cDNA was synthesized according to the manufacturer's instruction using 3 ug of each DNA-free total RNA sample and oligo(dT)15 and Moloney murine leukemia virus reverse transcriptase (Promega, Wis., USA). […]

FPRL1 = target: T1, FPRL1 (Homo sapiens, UniProt P25090); assay: ERK phosphorylation in FPRL1/RBL cells (immunoblot); format: cell-based; details: vector/RBL, FPR/RBL or FPRL1/RBL cells; conditioned medium or VEGF-A 10 ng/ml 8 hours; WKYMVm 10 nM
T1 construct: expressed in transfected cells; host or cells: rat basophil leukemia RBL-2H3 cells, kept under G418
T1 sequence (P25090 1-351): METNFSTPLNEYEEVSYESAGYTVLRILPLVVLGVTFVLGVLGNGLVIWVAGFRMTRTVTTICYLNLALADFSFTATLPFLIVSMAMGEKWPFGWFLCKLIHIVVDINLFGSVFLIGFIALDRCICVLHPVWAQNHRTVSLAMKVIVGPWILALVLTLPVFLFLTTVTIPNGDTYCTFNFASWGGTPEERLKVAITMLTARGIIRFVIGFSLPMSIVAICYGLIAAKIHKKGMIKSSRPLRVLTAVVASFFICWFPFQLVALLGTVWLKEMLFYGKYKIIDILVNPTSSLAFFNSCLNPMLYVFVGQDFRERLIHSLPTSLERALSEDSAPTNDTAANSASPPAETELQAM
Protocol: Vector/RBL cells, FPR/RBL cells, FPRL1/RBL cells, and HUVECs were cultured to confluence, and serum-starved. The stimulated cells (1×10^5 cells) were washed with PBS twice, dissolved in 1 ml of sample buffer (50 mM Tris-HCl, 100 mM NaCl, 0.1% SDS, 1% Nonidet P-40, 50 mM NaF, 1 mM Na3VO4, 1 μg/ml aprotinin, 1 μg/ml pepstatin, and 1 μg/ml leupeptin), heated at 95° C. for 30 seconds, separated with SDS-PAGE, and then, transferred to a nitrocellulose film. Immunoblot was conducted using anti-phospho-ERK (extracellular signal regulated kinase)1/2 (Thr^202/Tyr^204)(Cell Signaling Technology, Beverly, Mass., USA), anti-ERK1/2 (Cell Signaling Technology, Beverly, Mass., USA), anti-CTGF (Abcam, Cambridge, Mass., USA), anti-Actin (Sigma, St. Louis, Mo., USA), or anti-Flag (Sigma, St. Louis, Mo., USA) antibody, and then, the film was visualized with a chemiluminescence substrate (Amersham Pharmacia).
To confirm this, the inventors obtained conditioned medium (CM) in HUVEC treated with VEGF-A, and FPRL1-overexpressing cells FPRL1/RBL were treated therewith in the concentration of 10 ng/ml or 50 ng/ml for 8 hours. At this time, as positive control, FPRL1 agonistic peptide WKYMVm (Trp-Lys-Tyr-Met-Val-D-Met, SEQ ID NO. 1) was treated with 10 nM.
After the treatment, immunoblot was conducted on cell lysate that was transferred to a nitrocellulose film with anti-phospho ERK (extracellular signal regulated kinase)1/2 and anti-ERK1/2 antibody (Cell Signaling Technology, Beverly, Mass., USA), and then, the film was visualized with a chemiluminescence substrate (Amersham Pharmacia), and the results are shown in FIG. 1.
Meanwhile, the above described vector/RBL, FPR/RBL, or FPRL1/RBL cells were respectively treated with the above conditioned medium or VEGF-A at the concentration of 10 ng/ml for 8 hours, and positive control was treated with 10 nM of agonistic peptide WKYMVm (SEQ ID NO. 1).
As described in the <Experiment method 5>, FPRL1/RBL cells were treated with 40 ug of the HPLC fraction of the conditioned medium for 5 minutes, and the result confirming whether ERK phosphorylation occurred as described in the <Experiment result 1> was shown in FIG. 3.
To confirm whether the purified proteins induce ERK phosphorylation in FPRL1/RBL cells, immunoblot was conducted as described in the <Experiment result 1>, and the results are shown in FIG. 9.
ERK phosphorylation induction of CTGF linker polypeptide was compared to recombinant human CTGF (rhCTGF). Specifically, FPRL1/RBL cells were treated with CTGF linker polypeptide and rhCTGF for 5 minutes at various concentrations, ERK phosphorylation was measured, and the results are shown in FIG. 11. […]

Row | Substance | effect of siRNA on HUVEC cell migration induced by VEGF-A (HUVECs [1]) | effect of siRNA on HUVEC tube formation induced by VEGF-A (HUVECs [2]) | FPRL1 expression after siRNA (human FPRL1) | ERK phosphorylation, specificity for FPRL1 (FPRL1)
1 | FPRL1 siRNA: sense: UUCACAUCGUGGUGGACAUdTdT (SEQ ID NO. 3), anti-sense: AUGUCCACCACGAUGUGAAdTdT (SEQ ID NO. 4) (dTdT overhangs, chemistry not fully specified) | cell migration or tube formation induced by VEGF-A is inhibited | cell migration or tube formation induced by VEGF-A is inhibited | FPRL1 expression is inhibited | 
2 | Luciferase siRNA: control siRNA, sense: CGUACGCGGAAUACUUCGAdTdT (SEQ ID NO. 11), anti-sense: UCGAAGUAUUCCGCGUACGdTdT (SEQ ID NO. 12) (dTdT overhangs, chemistry not fully specified) |  |  | FPRL1 expression is not inhibited | 
3 | Trp-Lys-Tyr-Met-Val-D-Met [WKYMVm] |  |  |  | induce ERK phosphorylation only in FPRL1-overexpressing FPRL1/RBL cells
